# Patent US7351709B2, “Estrogen receptor ligands” (Wyeth, priority 2004, dated 2008)
# Read-outs that look alike come from different tables or passages of the source.
# Key:
# [1] = molecular target: T1, ERα (Homo sapiens, UniProt P03372); assay: IL-6 assay: inhibition of IL-1β induced IL-6 expression in ERα infected HAECT-1 cells; assay type: cell-based; conditions: for IC50: Ad5-wt-ER infected HAECT-1 cells, IL-1β stimulated, IL-6 by ELISA; for ER/IL-6 % E2: efficacy relative to the maximal inhibition observed with E2
# T1 construct: expressed in transfected cells; host or cells: HAECT-1 cells infected with Ad5-wt-ER adenovirus
# T1 sequence (P03372 1-595): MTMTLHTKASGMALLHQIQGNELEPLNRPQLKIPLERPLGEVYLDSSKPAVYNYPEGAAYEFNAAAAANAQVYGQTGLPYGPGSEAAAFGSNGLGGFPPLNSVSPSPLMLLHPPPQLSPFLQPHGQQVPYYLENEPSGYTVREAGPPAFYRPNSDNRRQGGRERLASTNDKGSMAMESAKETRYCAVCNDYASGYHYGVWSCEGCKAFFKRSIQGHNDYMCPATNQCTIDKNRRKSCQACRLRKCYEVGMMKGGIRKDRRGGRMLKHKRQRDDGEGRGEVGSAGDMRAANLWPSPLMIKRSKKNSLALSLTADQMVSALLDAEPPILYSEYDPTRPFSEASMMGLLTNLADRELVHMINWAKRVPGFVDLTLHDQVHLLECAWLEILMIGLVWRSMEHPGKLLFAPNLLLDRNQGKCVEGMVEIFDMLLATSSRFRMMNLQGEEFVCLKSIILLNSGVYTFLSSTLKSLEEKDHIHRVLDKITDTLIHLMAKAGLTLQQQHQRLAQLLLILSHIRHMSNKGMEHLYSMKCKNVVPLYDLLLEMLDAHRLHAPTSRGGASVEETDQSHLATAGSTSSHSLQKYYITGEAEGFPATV
# Description: (§1) ERα infected HAECT-1 cells or control cells were thawed, diluted 42× in warm EBM-BSA, plated into 96-well plates at 0.1 ml/well and incubated for 4 h at 34° C. Test compounds were added to the cells as 2× stocks in EBM-BSA containing 2 ng/ml IL-1β (R&D Systems) and plates were returned to the incubator (34° C.). After 15-20 h, 100 μl aliquots of media were removed from the cells and assayed for IL-6 content using a BioSource human IL-6 ELISA Kit. Cells were subsequently washed with 300 μl of Dulbecco's phosphate buffered saline and lysed in 50 μl of Cell Culture Lysis Reagent (Promega). Creatine kinase was determined from the rate of increase in A340 following addition of 100 μl of CK assay reagent (Sigma, cat. No 47-10) to the remainder of the cell lysate.
# (§2) For IC50 and EC50 calculations, mean IL-6 or CK values versus log10 of the compound concentration were fitted to a four parameter logistic equation. The IC50/EC50 value, ‘Hill slope’, upper and lower limits of the curve were iteratively estimated.
# [2] = molecular target: T1, ERα; assay: Creatine kinase (CK) assay in ERα infected HAECT-1 cells; assay type: cell-based; conditions: for ER/CK % E2: efficacy relative to the maximal stimulation observed with E2
# Description: as §1, §2
# [3] = Ad5-wt-ER infected HAECT-1 cells, creatine kinase in cell lysate
# [4] = cells of the EC50 column printed in uM, read-out: ER/CK EC50
IC50 [1],ER/IL-6 % E2 [1],"EC50 [2, 3]",ER/CK % E2 [2],"ER/CK EC50 (nM) [2, 3]","EC50 [2, 4]",SMILES
1170 nM,85 % E2,0.344 µM,20 % E2,,,"CC[C@H]1C(=O)N(C)c2cc(F)ccc2N1S(=O)(=O)c1ccc(O)cc1 [Example 29, (3S)-3-Ethyl-7-fluoro-4-[(4-hydroxyphenyl)sulfonyl]-1-methyl-3,4-dihydroquinoxalin-2(1H)-one]"
339 nM,81 % E2,,,inactive,,"CC[C@H]1C(=O)N(CC)c2ccc(F)cc2N1S(=O)(=O)c1ccc(O)cc1 [Example 26, (3S)-1,3-Diethyl-6-fluoro-4-[(4-hydroxyphenyl)sulfonyl]-3,4-dihydroquinoxalin-2(1H)-one]"
681 nM,108 % E2,,35 % E2,,> 3 µM,"CC[C@H]1C(=O)N(C)c2ccc(F)cc2N1S(=O)(=O)c1ccc(O)cc1 [Example 25, (3S)-3-Ethyl-6-fluoro-4-[(4-hydroxyphenyl)sulfonyl]-1-methyl-3,4-dihydroquinoxalin-2(1H)-one]"

# The remaining lines, values behind:
SMILES,IC50 [1],ER/IL-6 % E2 [1],"EC50 [2, 3]",ER/CK % E2 [2],"ER/CK EC50 (nM) [2, 3]","EC50 [2, 4]"
"CC[C@@H]1C(=O)N(C)c2cc(F)ccc2N1C(=O)c1ccc(O)cc1 [Example 1, (3R)-3-Ethyl-7-fluoro-4-(4-hydroxybenzoyl)-1-methyl-3,4-dihydroquinoxalin-2(1H)-one]",74 nM,99 % E2,0.089 µM,16 % E2,,
"CC[C@@H]1C(=O)N(C)c2ccc(F)cc2N1C(=O)c1ccc(O)cc1O [Example 19, (3R)-4-(2,4-Dihydroxybenzoyl)-3-ethyl-6-fluoro-1-methyl-3,4-dihydroquinoxalin-2(1H)-one]",5.4 nM,92 % E2,0.05 µM,44 % E2,,
"CC[C@@H]1C(=O)N(CC)c2ccc(F)cc2N1C(=O)c1ccc(O)cc1O [Example 18, (3R)-4-(2,4-Dihydroxybenzoyl)-1,3-diethyl-6-fluoro-3,4-dihydroquinoxalin-2(1H)-one]",20 nM,96 % E2,0.169 µM,36 % E2,,
"CC[C@@H]1C(=O)N(C)c2cc(F)ccc2N1C(=O)c1cccc(O)c1 [Example 4, (3R)-3-Ethyl-7-fluoro-4-(3-hydroxybenzoyl)-1-methyl-3,4-dihydroquinoxalin-2(1H)-one]",520 nM,57 % E2,0.126 µM,19 % E2,,
"CC[C@@H]1C(=O)N(Cc2ccccc2)c2cc(F)ccc2N1C(=O)c1ccc(O)cc1 [Example 2, (3R)-1-Benzyl-3-Ethyl-7-fluoro-4-(4-hydroxybenzoyl)-3,4-dihydroquinoxalin-2(1H)-one]",1230 nM,80 % E2,,24 % E2,,> 10 µM
"CC[C@@H]1C(=O)N(Cc2ccccc2)c2cc(F)ccc2N1C(=O)c1cccc(O)c1 [Example 5, (3R)-1-Benzyl-3-ethyl-7-fluoro-4-(3-hydroxybenzoyl)-3,4-dihydroquinoxalin-2(1H)-one]",542 nM,65 % E2,0.255 µM,17 % E2,,
